One substance from patent publication US20250099466A1 (BRISTOL-MYERS SQUIBB COMPANY, priority 2021, published 2025) can be followed below.

Oligonucleotides are written 5' to 3', each unit as a sugar letter and its base; * is a phosphorothioate linkage, no mark a phosphodiester; rarer units and linkages stand in square brackets, end groups in braces. Plain capitals give the bases only. e = 2'-O-(2-methoxyethyl) (MOE); [5mC] = 5-methylcytosine; d = 2'-deoxy (DNA)

The subject of the series is electrically induced carotid artery thrombosis (ECAT) in rabbits; rabbit FXI mRNA. The series can be described thus: Rabbit ECAT model after FXI antisense oligonucleotide treatment. Conditions: subcutaneous twice weekly for 4 weeks. The class given is in vivo. On the procedure:
The rabbit ECAT model, described by Wong et al. was used in the rabbit ECAT study (Wang et al. J. Pharmacol. Exp. Ther. 295:212-8, 2002). The ECAT model was conducted 3 to 4 days after the last dose of vehicle, FXI-ASO2, or FXI-ASO1. FXI-ASO1 has the nominal nucleotide sequence of […] (SEQ ID NO: 1) and is complementary to a sequence within rabbit FXI mRNA. FXI-ASO2 (control ASO) has the nominal nucleotide sequence of […] (SEQ ID NO: 2) and has no known complementary sequence in rabbit mRNA. Oligonucleotides were chemically modified with phosphorothioate in the backbone and 2′-O-methoxyethyl on the wings with a central deoxy gap (so-called 5-10-5 design). Cytosine bases were rendered as 5-methylcytosine.
Separate samples for each dose of FXI-ASO1 and FXI-ASO2 were weighed on an analytical balance. […]
Male New Zealand White rabbits were anesthetized with ketamine (50 mg/kg+50 mg/kg/h intramuscularly) and xylazine (10 mg/kg+10 mg/kg/h intramuscularly). […] Carotid blood flow was measured with an electromagnetic flow probe continuously beginning 30 min before the electrical stimulation and over a 90-min period after stimulation to monitor thrombosis-induced occlusion. Integrated carotid blood flow, as a percentage of pre-electrical stimulation control period, was measured by the area under the flow-time curve. […]

As for “FXI-ASO2: control ASO CCTTCCCTGAAGGTTCCTCC (SEQ ID NO: 2), no known complementary sequence in rabbit mRNA (e[5mC]*e[5mC]*eT*eT*e[5mC]*d[5mC]*d[5mC]*dT*dG*dA*dA*dG*dG*dT*dT*e[5mC]*e[5mC]*eT*e[5mC]*e[5mC])”, the thrombus weight result is “did not reduce thrombus weight”.
